In patent US6610677B2, “Pyrazole compounds useful as protein kinase inhibitors” (Vertex Pharmaceuticals Incorporated, priority 2000, dated 2003) one finds Ki data, which are given here for 32 molecules.

One assay concerns the target T1, GSK-3β (AA 1-420) (Homo sapiens, UniProt P49841).
T1 construct: GSK-3β (AA 1-420)
Nature of the assay: Ki determination for the inhibition of GSK-3 (coupled enzyme system). The class given is biochemical. The note with it: 20 μM ATP, 300 μM peptide, 20 nM GSK-3β, 30° C. The method in brief: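 Pyruvate kinase/lactate dehydrogenase-coupled NADH assay with 20 nM GSK-3β (AA 1-420), 20 μM ATP, 300 μM phosphopeptide HSSPHQS(PO3H2)EDEEE in HEPES pH 7.5, 1.5% DMSO, 30 °C. Compound (12 points, 0.002–30 μM) preincubated 10 min before ATP start; Ki derived from 10-min rates versus inhibitor concentration.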

The next assay addresses T2, Aurora-2 (Homo sapiens, UniProt O14965).
T2 sequence (O14965 1-403): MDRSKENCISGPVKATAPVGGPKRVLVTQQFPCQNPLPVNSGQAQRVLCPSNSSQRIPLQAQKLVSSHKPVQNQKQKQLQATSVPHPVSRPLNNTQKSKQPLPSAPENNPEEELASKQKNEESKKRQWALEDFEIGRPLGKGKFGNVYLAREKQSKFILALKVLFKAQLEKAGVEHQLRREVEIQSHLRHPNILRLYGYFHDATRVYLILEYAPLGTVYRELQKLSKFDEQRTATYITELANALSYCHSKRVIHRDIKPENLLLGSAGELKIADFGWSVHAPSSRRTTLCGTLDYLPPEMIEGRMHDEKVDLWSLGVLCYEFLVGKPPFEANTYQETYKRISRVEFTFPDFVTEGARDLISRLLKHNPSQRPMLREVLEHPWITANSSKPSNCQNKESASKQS
Kind of assay: Ki determination for the inhibition of Aurora-2 (coupled enzyme assay). The class given is biochemical. As to conditions: 70 nM Aurora-2, peptide LRRASLG, 30° C. On the procedure:
Compounds were screened in the following manner for their ability to inhibit Aurora-2 using a standard coupled enzyme assay (Fox et al (1998) Protein Sci 7, 2249).
To an assay stock buffer solution containing 0.1M HEPES 7.5, 10 mM MgCl2, 1 mM DTT, 25 mM NaCl, 2.5 mM phosphoenolpyruvate, […], 30 mg/ml pyruvate kinase, 10 mg/ml lactate dehydrogenase, […], and 800 μM peptide (LRRASLG, American Peptide, Sunnyvale, Calif.) was added a DMSO solution of a compound of the present invention to a final concentration of 30 μM. The resulting mixture was incubated at 30° C. for 10 min. The reaction was initiated by the addition of 10 μL of Aurora-2 stock solution to give a final concentration of 70 nM in the assay. The rates of reaction were obtained by monitoring absorbance at 340 nm over a 5 minute read time at 30° C. using a BioRad Ultramark plate reader (Hercules, Calif.). The Ki values were determined from the rate data as a function of inhibitor concentration.

One may read the pKi as −log10 of the Ki, conventionally taken in molar units. Lower therefore signals a high Ki.

pKi: −log10 of the molar value.

T1 sequence (P49841 whole entry, the tested form may be a part): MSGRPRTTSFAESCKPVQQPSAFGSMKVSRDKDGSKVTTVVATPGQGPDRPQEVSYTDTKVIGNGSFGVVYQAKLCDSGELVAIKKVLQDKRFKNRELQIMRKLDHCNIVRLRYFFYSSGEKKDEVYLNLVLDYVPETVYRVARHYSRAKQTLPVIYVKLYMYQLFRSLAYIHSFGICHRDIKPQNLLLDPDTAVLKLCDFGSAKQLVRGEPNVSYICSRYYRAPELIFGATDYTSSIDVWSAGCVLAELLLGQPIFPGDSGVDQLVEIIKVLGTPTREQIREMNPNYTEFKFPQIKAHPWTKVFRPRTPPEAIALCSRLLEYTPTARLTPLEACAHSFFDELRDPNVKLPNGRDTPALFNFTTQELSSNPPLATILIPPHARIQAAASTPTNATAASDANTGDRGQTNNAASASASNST

Regarding `FC(F)(F)c1ccccc1-c1cc2ccccc2c(Nc2n[nH]c3ccccc23)n1` [Compound V-2, (1H-Indazol-3-yl)-[3-(2-trifluoromethyl-phenyl)-isoquinoline-1-yl]-amine], the results for the negative logarithm of the Ki (pKi) on GSK-3β (AA 1-420) and on Aurora-2 were 6.00 to 7.00 and 4.70 to 6.00, respectively.

On to `Cc1cc(Nc2nc(-c3ccccc3Cl)nc(C)c2C)n[nH]1` [II-1, [2-(2-Clorophenyl)-5,6-dimethylpyrimidin-4-yl]-(5-Methyl-2H-pyrazol-3-yl)-amine], for which the pKi on GSK-3β (AA 1-420) is greater than 7.00; on Aurora-2, 6.00 to 7.00. Taken in the same sequence, the figures for `FC(F)(F)c1ccc2[nH]nc(Nc3nc(-c4ccccc4C(F)(F)F)nc4c3CCCC4)c2c1` [II-10, (5-Trifluoromethyl-1H-indazol-3-yl)-[2-(2-trifluoromethyl-phenyl)-5,6,7,8-tetrahydroquinazolin-4-yl]-amine] were greater than 7.00 and 4.70 to 6.00. Regarding `FC(F)(F)c1ccccc1-c1nc(Nc2n[nH]c3ccccc23)cc(-c2ccccc2)n1` [II-20, (1H-Indazol-3-yl)-[6-phenyl-2-(2-trifluoromethyl-phenyl)-pyrimidin-4-yl]-amine], the figures for the pKi on GSK-3β (AA 1-420) and on Aurora-2 were greater than 7.00 and 6.00 to 7.00, respectively. Taken in the same sequence, the figures for `FC(F)(F)c1ccccc1-c1nc(Nc2n[nH]c3ccccc23)cc(-c2ccncc2)n1` [II-21, (1H-Indazol-3-yl)-[6-(pyridin-4-yl)-2-(2-trifluoromethyl-phenyl)-pyrimidin-4-yl]-amine] were greater than 7.00 and 4.70 to 6.00. On the same counts, the results for `Cc1cc(Nc2nc(-c3ccccc3C)nc3ccccc23)n[nH]1` [II-33, (5-Methyl-2H-pyrazol-3-yl)-[2-(2-methylphenyl)-quinazolin-4-yl]-amine] are greater than 7.00 and greater than 7.00. On the same counts, the results for `Cc1cc(Nc2nc(-c3ccc(F)cc3F)nc3ccccc23)n[nH]1` [II-34, [2-(2,4-Difluorophenyl)-quinazolin-4-yl]-(5-methyl-2H-pyrazol-3-yl)-amine] are greater than 7.00 and greater than 7.00.

With `Cc1cc(Nc2nc(-c3ccccc3Cl)nc3ccccc23)n[nH]1` [II-36, [2-(2-Chlorophenyl)-quinazolin-4-yl]-(5-methyl-2H-pyrazol-3-yl)-amine], the negative-log Ki (pKi) at GSK-3β (AA 1-420) and at Aurora-2 was greater than 7.00 each time. At Aurora-2, `COc1ccccc1-c1nc(Nc2cc(C)[nH]n2)c2ccccc2n1` [II-37, [2-(2-Methoxyphenyl)-quinazolin-4-yl]-(5-methyl-2H-pyrazol-3-yl)-amine] had a pKi greater than 7.00. With `Cc1cc(Nc2nc(-c3c(C)cccc3C)nc3ccccc23)n[nH]1` [II-38, [2-(2,6-Dimethylphenyl)-quinazolin-4-yl]-(5-methyl-2H-pyrazol-3-yl)-amine], the pKi on GSK-3β (AA 1-420) is greater than 7.00; at Aurora-2, 6.00 to 7.00. On the same counts, the results for `CC(=O)c1ccccc1-c1nc(Nc2cc(C)[nH]n2)c2ccccc2n1` [II-39, [2-(2-Acetylphenyl)-quinazolin-4-yl]-(5-methyl-2H-pyrazol-3-yl)-amine] are greater than 7.00 and 6.00 to 7.00. Take `Cc1cc(Nc2nc(-c3cccc(C)c3C)nc3ccccc23)n[nH]1` [II-40, [2-(2,3-Dimethylphenyl)-quinazolin-4-yl]-(5-methyl-2H-pyrazol-3-yl)-amine]: the pKi on GSK-3β (AA 1-420) and at Aurora-2 was greater than 7.00 throughout. Regarding `Cc1cc(Nc2nc(-c3ccccc3C(F)(F)F)nc3ccccc23)n[nH]1` [II-41, (5-Methyl-2H-pyrazol-3-yl)-[2-(2-trifluoromethylphenyl)-quinazolin-4-yl]-amine], the pKi on GSK-3β (AA 1-420) and at Aurora-2 was greater than 7.00 throughout. Consider `CCc1ccccc1-c1nc(Nc2cc(C)[nH]n2)c2ccccc2n1` [II-42, [2-(2-Ethylphenyl)-quinazolin-4-yl]-(5-Methyl-2H-pyrazol-3-yl)-amine], for which the pKi is greater than 7.00 at GSK-3β (AA 1-420) and 6.00 to 7.00 at Aurora-2.

Consider `FC(F)(F)c1ccccc1-c1nc(Nc2cc[nH]n2)c2ccccc2n1` [II-53, (2H-Pyrazol-3-yl)-[2-(2-trifluoromethylphenyl)-quinazolin-4-yl]-amine], for which the pKi on GSK-3β (AA 1-420) is greater than 7.00; at Aurora-2 it was 6.00 to 7.00. As for `Oc1cc(Nc2nc(-c3ccccc3C(F)(F)F)nc3ccccc23)n[nH]1` [II-54, (5-Hydroxy-2H-pyrazol-3-yl)-[2-(2-trifluoromethylphenyl)-quinazolin-4-yl]-amine], the negative-log Ki (pKi) at GSK-3β (AA 1-420) is greater than 7.00; at Aurora-2 it was 4.70 to 6.00.

Regarding `FC(F)(F)c1ccccc1-c1nc(Nc2cc(C3CC3)[nH]n2)c2ccccc2n1` [II-55, (5-Cyclopropyl-2H-pyrazol-3-yl)-[2-(2-trifluoromethyl-phenyl)-quinazolin-4-yl]-amine], the pKi on Aurora-2 was greater than 7.00. Turning to `FC(F)(F)c1ccccc1-c1nc(Nc2n[nH]c3ccccc23)c2ccccc2n1` [II-57, (1H-indazol-3-yl)-[2-(2-trifluoromethyl-phenyl)-quinazolin-4-yl]-amine], the pKi at GSK-3β (AA 1-420) was greater than 7.00; at Aurora-2, 4.70 to 6.00. On the same counts, the results for `Fc1ccc2[nH]nc(Nc3nc(-c4ccccc4C(F)(F)F)nc4ccccc34)c2c1` [II-59, (5-Fluoro-1H-indazol-3-yl)-[2-(2-trifluoromethyl-phenyl)-quinazolin-4-yl]-amine] are greater than 7.00 and 4.70 to 6.00. On the same counts, the results for `Cc1ccc2[nH]nc(Nc3nc(-c4ccccc4C(F)(F)F)nc4ccccc34)c2c1` [II-61, (5-Methyl-1H-indazol-3-yl)-[2-(2-trifluoromethyl-phenyl)-quinazolin-4-yl]-amine] are greater than 7.00 and 4.70 to 6.00. Taken in the same sequence, the figures for `Clc1ccccc1-c1nc(Nc2n[nH]c3ccccc23)c2ccccc2n1` [II-63, [2-(2-Chloro-phenyl)-quinazolin-4-yl]-(1H-indazol-3-yl)-amine] were greater than 7.00 and 4.70 to 6.00. In the case of `FC(F)(F)c1ccc2[nH]nc(Nc3nc(-c4ccccc4C(F)(F)F)nc4ccccc34)c2c1` [II-64, (5-Trifluoromethyl-1H-indazol-3-yl)-[2-(2-trifluoromethyl-phenyl)-quinazolin-4-yl]-amine], the negative logarithm of the Ki (pKi) at GSK-3β (AA 1-420) is greater than 7.00; on Aurora-2 it was 6.00 to 7.00. Taken in the same sequence, the figures for `Cc1ccccc1-c1nc(Nc2n[nH]c3ccccc23)c2ccccc2n1` [II-67, (1H-indazol-3-yl)-[2-(2-methyl-phenyl)-quinazolin-4-yl]-amine] were greater than 7.00 and 4.70 to 6.00. On the same counts, the results for `FC(F)(F)c1ccc2c(Nc3nc(-c4ccccc4C(F)(F)F)nc4ccccc34)n[nH]c2c1` [II-69, (6-Trifluoromethyl-1H-indazol-3-yl)-[2-(2-trifluoromethyl-phenyl)-quinazolin-4-yl]-amine] are greater than 7.00 and 4.70 to 6.00. On the same counts, the results for `O=[N+]([O-])c1ccc2[nH]nc(Nc3nc(-c4ccccc4C(F)(F)F)nc4ccccc34)c2c1` [II-70, (5-Nitro-1H-indazol-3-yl)-[2-(2-trifluoromethyl-phenyl)-quinazolin-4-yl]-amine] are greater than 7.00 and 6.00 to 7.00.

For `c1ccc2c(Nc3[nH]nc4ccccc34)nc(N3CCCCC3)nc2c1` [III-143, (1H-Indazol-3-yl)-(2-piperidin-1-yl-quinazolin-4-yl)-amine], the pKi on GSK-3β (AA 1-420) was 4.70 to 6.00. Turning to `CC1CN(c2nc(Nc3[nH]nc4ccccc34)c3ccccc3n2)CC(C)O1` (stereo not shown) [III-145, (1H-Indazol-3-yl)-[2-(2,6-dimethyl-morpholin-4-yl)-quinazolin-4-yl]-amine], the negative-log Ki (pKi) on GSK-3β (AA 1-420) is 4.70 to 6.00. At GSK-3β (AA 1-420), `CC1CCCCN1c1nc(Nc2n[nH]c3ccccc23)c2ccccc2n1` (stereo not shown) [III-146] gave a pKi of 4.70 to 6.00. Still for that read-out and setting: the value for `Fc1ccc2[nH]nc(Nc3nc(-c4ccccc4)nc4c3CNCC4)c2c1` [IV-36, (5-Fluoro-1H-indazol-3-yl)-(2-phenyl-5,6,7,8-tetrahydro-pyrido[4,3-d]pyrimidin-4-yl)-amine] was 6.00 to 7.00; that for `Cc1nc(Nc2nc(-c3ccccc3C(F)(F)F)nc3ccccc23)n[nH]1` [IX-38, (5-Methyl-2H-[1,2,4]triazol-3-yl)-[2-(2-trifluoromethylphenyl)-quinazolin-4-yl]-amine] was 6.00 to 7.00.

Turning to `CSc1n[nH]c(Nc2nc(-c3ccccc3C(F)(F)F)nc3ccccc23)n1` [IX-156, (5-Methylsulfanyl-2H-[1,2,4]triazol-3-yl)-[2-(2-trifluoromethylphenyl)-quinazolin-4-yl]-amine], on GSK-3β (AA 1-420), the pKi was 4.70 to 6.00.

In turn, `c1ccc(-c2cc(Nc3nc[nH]n3)c3ccccc3n2)cc1` [IX-176, (2-Phenyl-quinolin-4-yl)-(1H-[1,2,4]triazol-3-yl)-amine] had a pKi at GSK-3β (AA 1-420) of 4.70 to 6.00.
